Molecular target: T1, human leukocyte elastase enzyme (Homo sapiens, UniProt P08246)
T1 sequence (P08246 30-267): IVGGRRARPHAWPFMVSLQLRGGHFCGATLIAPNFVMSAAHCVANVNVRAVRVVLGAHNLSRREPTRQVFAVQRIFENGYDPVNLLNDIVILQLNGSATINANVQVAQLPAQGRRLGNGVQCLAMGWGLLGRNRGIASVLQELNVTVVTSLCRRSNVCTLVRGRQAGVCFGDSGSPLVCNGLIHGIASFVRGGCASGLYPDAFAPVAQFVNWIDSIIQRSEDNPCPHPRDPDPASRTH
Assay: Inhibition of acute lung damaging effect caused by human leukocyte elastase enzyme, determined on mice (BAL haemoglobin)
Type: in vivo, mouse
Conditions: for inhibition %: male NMRI mice, p.o. dose 10 mg/bw kg, 60 minutes before intratracheal human leukocyte elastase, haemorrhagic response (BAL haemoglobin, 540 nm) 3 hours later; for ED50: mouse, po, mice, per os, elastase-induced lung haemorrhage
Method: Inhibition of Acut Lung Damaging Effect Caused by Human Leukocyte Elastase Enzyme, Determined on Mice.
Description of the method:
Male NMRI mice approximately 6-8 week old of age, weighing between 22-26 grams were dosed per os with the 0.1% (w/v) solution in carboxymethyl cellulose of the investigated compounds of the general formula (I) or of the known comparatory compound, respectively. 60 minutes later the mice were given intratracheally 12.5 international unit of human leukocyte elastase enzyme dissolved in 25.0 μL sterile physiological sodium chloride solution.
3 hours later the animals were euthanized with an overdose of urethane and into the lung 1 ml of physiological salt solution was introduced, for washing.
The trachea was exposed at wound by opening suture clips and a small incision made for insertion of a polyethylene cannula secured in place with surgical thread. An 18 gauge×1½ inch needle, attached to an 1.00 mL syringe was inserted into the cannula, and 0.5 mL of air was withdrawn from the airways. One milliliter was then instilled into the airways. After it the chest was briefly and gently massaged. The syringe was removed from the cannula and the bronchoalveolar lavage (BAL) fluid allowed to drain into a 10.0 mL graduate to determine the total volume of lavage fluid retrievable from lungs while the animal was in a supine position. The instillation procedure mentioned above was repeated three times. Triton X100 was then added to the collected bronchoalveolar lavage fluid (final concentration, 0.2% v/v) to ensure cell disruption and the haemoglobin content was determined spectrophotometrically at 540 nm.
Effectiveness of the elastase enzyme inhibitory compound was determined on the basis of the haemorrhagic responses, according to the following formula:
% inhibition=[(VE−DE)/(VE−VS)]×100,
VE=mean absorbance of BAL fluids from the group pretreated orally only with vehicle but intratracheally with elastase;
DE=absorbance of each BAL fluid from animals pretreated orally with potential inhibitor compound, intratracheally with elastase;
VS=mean absorbance of BAL fluids from group pretreated orally with vehicle and intratracheally with sterile physiological salt solution.
For comparative compound the structurally most related known compound described in patent application EP-0626378A1 example 9E was used. Its synthesis is described above in the reference example.

## COc1cc(C(C)C)c2c(c1)S(=O)(=O)N(COc1cc(=O)n3cccc(OCCN4CCCC4)c3n1)C2=O [EP-626378, Example 9E, 2-(9-(2-pyrrolidino-ethoxy)-4-oxo-4H-pyrido[1,2-a]pyrimidin-2-yl-oxymethyl)-4-isopropyl-6-methoxy-1,2-benzisothiazol-3(2H)one-1,1-dioxide, reference compound]
  inhibition %: 15%
  ED50: 23 mg/kg

## COc1cc(C(C)C)c2c(c1)S(=O)(=O)N(COc1cc(=O)n3cccc(OCCN4CCCCC4)c3n1)C2=O.O=C(O)c1ccccc1 [Example 7, 2-(9-(2-piperidino-ethoxy)-4-oxo-4H-pyrido[1,2-a]pyrimidin-2-yl-oxymethyl)-4-isopropyl-6-methoxy-1,2-benzisothiazol-3(2H)-one-1,1-dioxide benzoate salt]
  inhibition %: 56%

## COc1cc(C(C)C)c2c(c1)S(=O)(=O)N(COc1cc(=O)n3cccc(OCCN4CCCCC4)c3n1)C2=O [Example 3, 2(-9-(2-piperidino-ethoxy)-4-oxo-4H-pyrido[1,2-a]pyrimidin-2-yl-oxymethyl)-4-isopropyl-6-methoxy-1,2-benzisothiazol-3(2H)-one-1,1-dioxide]
  inhibition %: 80%
  ED50: 2.6 mg/kg

## COc1cc(C(C)C)c2c(c1)S(=O)(=O)N(COc1cc(=O)n3cccc(OCCN4CCCCC4)c3n1)C2=O.O=C(O)CC(O)(CC(=O)O)C(=O)O [Example 8, 2-(9-(2-piperidino-ethoxy)-4-oxo-4H-pyrido[1,2-a]pyrimidin-2-yl-oxymethyl)-4-isopropyl-6-methoxy-1,2-benzisothiazol-3(2H)-one-1,1-dioxide monocitrate salt]
  inhibition %: 70%

Source: patent US20030114449A1, “SACCHARIN DERIVATIVES AS ORALLY ACTIVE ELASTASE INHIBITORS” (priority 1999, published 2003)
